Source: patent US20040192611A1, “Peptide antioxidants from soy protein” (Kraft Foods Holdings, Inc., priority 2003, published 2004)

assay: Antioxidant activity of soy-derived peptides isolated by HPLC (assay not specified); details: qualitative statement
Description: In another aspect, the invention is directed to a method of producing a peptide with antioxidant activity. The peptide is made by digesting soy protein isolate (available commercially, e.g., from Protein Technology International, St. Louis, Mo., or using procedures well established in the art) with a protease to produce an aqueous hydrolysate solution. Proteases that may be used for digestion include chymosin, papain, neutrase, promod, and flavozyme and, preferably, either alcalase or corolase. The protease may come from bacterial, plant or fungal sources. The aqueous hydrolysate solution is extracted with an organic solvent, preferably acetone, and the organic phase is selected for further processing. After extraction, solvent may be removed under reduced pressure to concentrate the peptide and the preparation is then fractionated by reverse phase high pressure liquid chromatography (HPLC). Fractions collected during this process may be assayed for antioxidant activity using methods such as those described in the Examples section herein. The identification of fractions containing the peptide may be based upon the presence of antioxidant activity and upon retention time during chromatography. The identity of the peptide within fractions can be confirmed by sequence analysis.
After recovering peptide from the extraction, reverse phase high pressure liquid chromatography may be performed using, for example, a C18 column. […] Fractions collected from the column may be tested for antioxidant activity to identify peaks that are of interest. Finally, specific peptides may be identified by carrying out sequencing experiments.
Fractions with antioxidant activity are collected and subjected to further purification. This is carried out using the mobile phases:
Fractions with antioxidant activity are collected and subject to further purification. In this case, the same mobile phases are used. The flow rate is set at 0.4 ml/min and ultraviolet absorbance is set at 275 nm. The gradient elution program is set as follows: […]

Substance | antioxidant activity
SWWPF (Glycine max) | found to have antioxidant activity
WTY | found to have antioxidant activity
WWMY (Glycine max) | found to have antioxidant activity
